From patent US20080306118A1, “Process for the crystallization of (R) - or (S) - Lansoprazole” (Takeda Pharmaceutical Company Limited, priority 2000, published 2008) come the findings set out here.

The data set is described as follows: Stability test (relationship between melting start temperature and stability) of lansoprazole enantiomer crystals. In kind it is physicochemical. The conditions noted are these: for 60° C. one month residual ratio: crystal, stability test at 60° C. for one month; for appearance after stability tests (FIG. 1): 40° C. 2 weeks, 50° C. 2 weeks and 60° C. 2 weeks, compared with before test. The procedure: Stability Test (Relationship Between Melting Start Temperature and Stability)
Various (R)-lansoprazole crystals obtained in the above-mentioned Reference Examples and Examples were subjected to a stability test at 60° C. for one month.
The crystal of (R)-lansoprazole was subjected to a 40° C. one month stability test.
In FIG. 1, the appearance of a crystal (Example 1) having a melting start temperature of about 134° C. and a crystal (Reference Example 6) having a melting start temperature of about 130° C. before stability test and after stability tests (40° C. 2 weeks, 50° C. 2 weeks and 60° C. 2 weeks) is shown.

Setting [1] is: initial (before 40° C. one month stability test).

With `Cc1c(OCC(F)(F)F)ccnc1C[S@@+]([O-])c1nc2ccccc2[nH]1` [Reference Example 3, (R)-2-[[[3-methyl-4-(2,2,2-trifluoroethoxy)-2-pyridinyl]methyl]sulfinyl]-1H-benzimidazole, reference compound], the “60° C. one month residual ratio” value amounted to 89.8%.

As for `Cc1c(OCC(F)(F)F)ccnc1C[S@@+]([O-])c1nc2ccccc2[nH]1` [Example 2, (R)-2-[[[3-methyl-4-(2,2,2-trifluoroethoxy)-2-pyridinyl]methyl]sulfinyl]-1H-benzimidazole], the “60° C. one month residual ratio” value is recorded as 100%.

Take `Cc1c(OCC(F)(F)F)ccnc1C[S@@+]([O-])c1nc2ccccc2[nH]1` [Reference Example 7, (R)-2-[[[3-methyl-4-(2,2,2-trifluoroethoxy)-2-pyridinyl]methyl]sulfinyl]-1H-benzimidazole, reference compound]: where the note is “40° C. one month”, the analogous material content worked out at 4.6%, the appearance result is listed as “brown” and the content amounted to 93.8%. Besides, under setting [1], the analogous material content stood at 0.1%, the appearance entry is on record as “almost white” and the content worked out at 99.6%.

For the molecule `Cc1c(OCC(F)(F)F)ccnc1C[S@@+]([O-])c1nc2ccccc2[nH]1` [Reference Example 6, (R)-2-[[[3-methyl-4-(2,2,2-trifluoroethoxy)-2-pyridinyl]methyl]sulfinyl]-1H-benzimidazole, reference compound], the “appearance after stability tests (FIG. 1)” value was “showed appreciably degraded appearance” and the “60° C. one month residual ratio” value came to 93.8%.

Take `Cc1c(OCC(F)(F)F)ccnc1C[S@@+]([O-])c1nc2ccccc2[nH]1` [Example 11, (R)-2-[[[3-methyl-4-(2,2,2-trifluoroethoxy)-2-pyridinyl]methyl]sulfinyl]-1H-benzimidazole]: where the note is “40° C. one month”, the analogous material content was 0.2%, the appearance entry was “almost white” and the content is recorded as 99.7%. Moreover, under setting [1], the analogous material content turned out to be 0.2%, the appearance entry is on record as “almost white” and the content is listed as 99.5%.

As for `Cc1c(OCC(F)(F)F)ccnc1C[S@@+]([O-])c1nc2ccccc2[nH]1` [Example 6, (R)-2-[[[3-methyl-4-(2,2,2-trifluoroethoxy)-2-pyridinyl]methyl]sulfinyl]-1H-benzimidazole], the “60° C. one month residual ratio” value was 99.2%.

Regarding `Cc1c(OCC(F)(F)F)ccnc1C[S@@+]([O-])c1nc2ccccc2[nH]1` [Example 1, (R)-2-[[[3-methyl-4-(2,2,2-trifluoroethoxy)-2-pyridinyl]methyl]sulfinyl]-1H-benzimidazole], the “appearance after stability tests (FIG. 1)” value was “did not show changes in the appearance” and the “60° C. one month residual ratio” value came to 99.7%.
